According to PubChem BioAssay (NCI):
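1) Cells in 96-well plates. 2) Compound, 48 h, 5 concentrations. 3) Linear interpolation between surrounding doses. 4) Unreached endpoint = highest concentration. At the TGI there is no net growth.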

Experiments:
Test in all cases: DTP human tumour cell line panel, 48 h
[1] = system: A549 NSCLC
[2] = system: DMS 114 small cell lung
[3] = system: DMS 273 small cell lung
[4] = system: EKVX NSCLC
[5] = system: HCT-116 colon
[6] = system: HOP-62 NSCLC
[7] = system: HT29 colon
[8] = system: KM20L2 colon
[9] = system: MALME-3M melanoma
[10] = system: MOLT-4 leukemia
[11] = system: NCI-H460 lung
[12] = system: OVCAR-3 ovarian
[13] = system: OVCAR-8 ovarian
[14] = system: RPMI-8226 leukemia
[15] = system: SF-295 CNS
[16] = system: SF-539 CNS
[17] = system: SNB-19 CNS
[18] = system: SNB-75 CNS
[19] = system: SW-620 colon
[20] = system: XF 498 CNS

Compound	TGI [1] [µM]	TGI [2] [µM]	TGI [3] [µM]	TGI [4] [µM]	TGI [5] [µM]	TGI [6] [µM]	TGI [7] [µM]	TGI [8] [µM]	TGI [9] [µM]	TGI [10] [µM]	TGI [11] [µM]	TGI [12] [µM]	TGI [13] [µM]	TGI [14] [µM]	TGI [15] [µM]	TGI [16] [µM]	TGI [17] [µM]	TGI [18] [µM]	TGI [19] [µM]	TGI [20] [µM]
COC(=O)C1C(O)C(C)C(O)OC1C(C)C(O)C(C)/C=C\C=C(/C)C(=O)Nc1c(C)c(OC(C)=O)c2c(c1O)C(=O)C(C)=C1OCOC(/C(C)=C/C(C)=O)=C12 (stereo not given)	35.3	27.5	25	20.5	19.9	23.5	26.5	24.4	24.8	33.3	26.5	20.5	30.7	28.2	26	23.7	30.9	29.1	20.4	24.6
CC(C)[C@](O)(C(=O)OCC1=CCN2CC[C@@H](O)[C@@H]12)[C@H](C)O	> 375	> 375	> 375	> 375	> 375	> 375	> 375	> 375	> 375	> 375	> 375	> 375	> 375	> 375	> 375	> 375	> 375	> 375	> 237	> 375
Cc1c(N=NN(C)C)cc[n+]([O-])c1C	> 100	> 100	> 100	> 100	> 100	> 100	> 100	> 100	> 100	> 100	> 100	> 100	> 100	> 100	> 100	> 100	> 100	> 100	> 100	> 100
